Converted amounts (≈) assume the structure as drawn. The source made the active and inactive calls. The calls are words filed in the database; no cut-off is given here.
Experiments:
[1] = test system: Mycobacterium tuberculosis; test: Antituberculosis activity against Mycobacterium tuberculosis H37Rv at 64 ug/mL after 24 hrs by alamar blue assay; assay type: functional, organism-based
Plasmodium falciparum [2] = test: Antimalarial activity after 72 hrs against chloroquine-sensitive Plasmodium falciparum D6 in erythrocytes by LDH reporter assay; assay type: functional, organism-based; conditions: D6, 72 h
Leishmania donovani = test: Antileishmanial activity against Leishmania donovani after 72 hrs by alamar blue assay; assay type: functional, organism-based
Cryptococcus neoformans = test: Antifungal activity against Cryptococcus neoformans; assay type: functional, organism-based
[3] = test system: Mycobacterium intracellulare; test: Antibacterial activity against Mycobacterium intracellular by alamar blue assay; assay type: functional, organism-based
[4] = biological target: Beta-secretase 1 (Homo sapiens) (UniProt P56817); test: Inhibition of human recombinant BACE1 by FRET-based assay
Vero [5] = test: Cytotoxicity against african green monkey Vero cells at 4.76 ug/mL by neutral red assay; assay type: cell-based; conditions: chlorocebus sabaeus
Plasmodium falciparum [6] = test: Antimalarial activity after 72 hrs against chloroquine-resistant Plasmodium falciparum W2 in erythrocytes at […] by LDH reporter assay; assay type: functional, organism-based
Staphylococcus aureus [7] = test: Antibacterial activity against Staphylococcus aureus; assay type: functional, organism-based
Staphylococcus aureus [8] = test: Antibacterial activity against methicillin-resistant Staphylococcus aureus; assay type: functional, organism-based
[9] = biological target: T1, Acetylcholinesterase (Bos taurus) (UniProt P23795); test: Inhibition of bovine AChE
T1 sequence (whole entry): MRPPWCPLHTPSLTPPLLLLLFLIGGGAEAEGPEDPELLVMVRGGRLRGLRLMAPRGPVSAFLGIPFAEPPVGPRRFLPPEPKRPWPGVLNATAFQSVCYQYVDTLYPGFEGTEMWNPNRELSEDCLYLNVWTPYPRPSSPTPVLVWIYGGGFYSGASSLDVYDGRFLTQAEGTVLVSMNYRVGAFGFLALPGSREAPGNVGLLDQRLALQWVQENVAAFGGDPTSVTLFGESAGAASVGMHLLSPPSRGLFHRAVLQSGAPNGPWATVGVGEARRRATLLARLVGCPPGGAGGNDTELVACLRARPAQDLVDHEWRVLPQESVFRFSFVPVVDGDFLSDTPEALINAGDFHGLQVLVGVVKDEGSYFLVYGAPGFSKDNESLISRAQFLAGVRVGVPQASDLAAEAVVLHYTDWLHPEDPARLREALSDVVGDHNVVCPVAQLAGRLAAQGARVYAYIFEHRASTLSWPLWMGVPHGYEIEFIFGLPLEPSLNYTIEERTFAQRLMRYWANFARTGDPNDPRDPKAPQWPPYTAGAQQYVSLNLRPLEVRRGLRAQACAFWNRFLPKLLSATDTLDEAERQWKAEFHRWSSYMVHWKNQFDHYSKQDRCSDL

[10] = Toxicity against medaka eggs assessed as eggs failing to hatch up to 10.6 uM after 11 days relative to control; set-up: species or system Egg; conditions: oryzias latipes, 264 h
Vero [11] = test: Cytotoxicity against african green monkey Vero cells by neutral red assay; assay type: cell-based; conditions: chlorocebus sabaeus
[12] = test system: Human immunodeficiency virus 1; test: Antiviral activity against HIV1 3B assessed as reverse transcriptase activity by enzyme immunoassay; assay type: functional, organism-based; conditions: Human immunodeficiency virus 1, 3B
[13] = Toxicity against medaka fry after 96 hrs; assay type: organism-based; conditions: oryzias latipes, in vivo; read-out: LD50
[14] = biological target: Glycogen synthase kinase-3 beta (Homo sapiens) (UniProt P49841); test: Inhibition of human recombinant GSK3-beta assessed as incorporation of [33P]gammaATP into G2S peptide at 25 uM
Plasmodium falciparum [15] = test: Antimalarial activity after 72 hrs against chloroquine-resistant Plasmodium falciparum W2 in erythrocytes by LDH reporter assay; assay type: functional, organism-based; conditions: W2, 72 h
[16] = biological target: Glycogen synthase kinase-3 beta (Homo sapiens) (UniProt P49841); test: Inhibition of GSK3-beta in human SH-SY5Y cells assessed as inhibition of tau phosphorylation at Ser396 at 5 uM after 24 hrs by ELISA sandwich method; assay type: cell-based
[17] = Selectivity ratio of LD50 for medaka fry to ED50 for medaka eggs; conditions: oryzias latipes
[18] = test system: Voltage-gated calcium channel; test: Blocking of calcium channel in human SH-SY5Y cells assessed as inhibition of KCL depolarization-induced cytosolic calcium increase at 1 uM; assay type: cell-based
[19] = test system: Mycobacterium tuberculosis; test: Antituberculosis activity against Mycobacterium tuberculosis H37Rv after 24 hrs by alamar blue assay; assay type: functional
SH-SY5Y = test: Cytotoxicity against human SH-SY5Y cells at 5 uM; assay type: cell-based
[20] = Toxicity against medaka eggs assessed as eggs failing to hatch after 11 days; set-up: species or system Egg; conditions: oryzias latipes, 264 h

Glycogen synthase kinase-3 beta (Homo sapiens), sequence (P49841 whole entry, looked up): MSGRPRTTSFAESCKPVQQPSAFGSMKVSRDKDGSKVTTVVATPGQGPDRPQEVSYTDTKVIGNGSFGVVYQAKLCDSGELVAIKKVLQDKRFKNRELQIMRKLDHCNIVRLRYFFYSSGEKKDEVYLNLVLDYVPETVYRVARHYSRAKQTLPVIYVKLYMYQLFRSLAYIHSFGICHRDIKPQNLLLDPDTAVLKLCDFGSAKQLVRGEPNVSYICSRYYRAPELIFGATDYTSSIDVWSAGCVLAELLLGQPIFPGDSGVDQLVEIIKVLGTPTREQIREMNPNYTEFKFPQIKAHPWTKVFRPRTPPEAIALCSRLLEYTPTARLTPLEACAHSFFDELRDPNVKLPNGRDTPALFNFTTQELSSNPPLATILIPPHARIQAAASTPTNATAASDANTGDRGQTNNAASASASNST
Beta-secretase 1 (Homo sapiens), sequence (P56817 whole entry): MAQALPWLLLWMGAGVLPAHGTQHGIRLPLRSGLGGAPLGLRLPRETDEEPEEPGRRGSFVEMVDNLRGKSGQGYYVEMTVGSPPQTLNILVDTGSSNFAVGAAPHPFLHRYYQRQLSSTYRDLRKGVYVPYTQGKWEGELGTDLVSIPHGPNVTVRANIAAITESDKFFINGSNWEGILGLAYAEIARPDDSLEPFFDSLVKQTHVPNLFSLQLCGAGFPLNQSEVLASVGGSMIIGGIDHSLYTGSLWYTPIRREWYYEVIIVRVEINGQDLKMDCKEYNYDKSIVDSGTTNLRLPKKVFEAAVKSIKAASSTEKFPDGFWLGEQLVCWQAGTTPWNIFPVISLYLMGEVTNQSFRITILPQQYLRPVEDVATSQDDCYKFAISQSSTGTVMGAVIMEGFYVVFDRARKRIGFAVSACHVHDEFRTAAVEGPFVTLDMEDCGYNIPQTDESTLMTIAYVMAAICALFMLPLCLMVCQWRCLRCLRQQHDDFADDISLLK

C1=C(c2nccc3c2[nH]c2ccccc23)[C@@H]2CCN3CCCC/C=C\CC[C@]14O[C@@]15/C=C\CCCCN1[C@@H]4[C@]2(C3)C5 [12,34-OXAMANZAMINE A]
Activity [1]: inactive | IC50 (Plasmodium falciparum [2]): 4.76 µg/mL (≈ 8.71 µM) | IC50 (Leishmania donovani): 14 µg/mL (≈ 25.6 µM) | IC90 (Leishmania donovani): 40 µg/mL (≈ 73.2 µM) | Activity (Cryptococcus neoformans): inactive | Activity [3]: inactive | Activity [4]: inactive | Activity (Vero [5]): Non-toxic | Activity (Plasmodium falciparum [6]): inactive | Activity (Staphylococcus aureus [7]): inactive | Activity (Staphylococcus aureus [8]): inactive | Activity [9]: inactive

CCN(CC)CCCC(C)Nc1ccnc2cc(Cl)ccc12 (configuration not stated) [CHLOROQUINE]
Activity [10]: Not Active

O[C@]12C=C(c3nccc4c3[nH]c3ccccc34)[C@@H]3CCN(CCCC/C=C\CC1)C[C@@]31C[C@@H]3/C=C\CCCCN3[C@H]12 [MANZAMINE A]
IC50 (Plasmodium falciparum [2]): 0.0045 µg/mL (≈ 0.0082 µM) | IC50 (Leishmania donovani): 0.9 µg/mL (≈ 1.64 µM) | IC90 (Leishmania donovani): 1.8 µg/mL (≈ 3.28 µM) | IC50 (Vero [11]): 1.2 µg/mL (≈ 2.19 µM) | IC50 (Cryptococcus neoformans): 3 µg/mL (≈ 5.47 µM) | IC50 [3]: 0.35 µg/mL (≈ 0.638 µM) | Activity [4]: inactive | IC50 [12]: 4.2 µg/mL (≈ 7.65 µM) | LC50 at 96 h [13]: 74 nM | inhibition [14]: 73.2% | IC50 (Plasmodium falciparum [15]): 0.008 µg/mL (≈ 0.0146 µM) | IC50 (Staphylococcus aureus [7]): 0.5 µg/mL (≈ 0.911 µM) | Activity [16]: Active | selectivity ratio [17]: 2.3 | IC50 (Staphylococcus aureus [8]): 0.7 µg/mL (≈ 1.28 µM) | inhibition (INH) [18]: 20% | Activity [9]: inactive | MIC [19]: 1.5 µg/mL (≈ 2.73 µM) | Activity (SH-SY5Y): Non-toxic | ED50 [20]: 170 nM

O[C@@H]1CCCN2CC[C@@H]1O[C@@]13CC[C@@H](OC[C@]45CN6CCCC/C=C\CC[C@](O)(C=C(c7nccc8c7[nH]c7ccccc78)[C@@H]4CC6)[C@H]25)[C@@H](O)CCN1[C@@H]1[C@]2(CN4CCCC/C=C\CC[C@]1(O)C=C(c1nccc5c1[nH]c1ccccc15)[C@@H]2CC4)C3 [NEO-KAULUAMINE]
LC50 at 96 h [13]: 820 nM | inhibition [14]: 82% | selectivity ratio [17]: 3 | ED50 [20]: 2450 nM

Reference: ChEMBL document CHEMBL1142603, “Manzamine B and E and ircinal A related alkaloids from an Indonesian Acanthostrongylophora sponge and their activity against infectious, tropical parasitic, and Alzheimer's diseases” (J Nat Prod, 2006)
